Earlier results on one compound are cited in patent US20210299070A1, “METHODS OF TREATING CREATINE T[…]” (Jnana Therapeutics, Inc., priority 2018, published 2021).

The conditions of data set [1]: patients with CID (creatine transporter deficiency); oral supplements.
The conditions of data set [2]: patients with GAMT or AGAT deficiency; oral supplements.

For `CN(CC(=O)O)C(=N)N.O` [creatine monohydrate], the response to treatment entry in data set [1] is recorded as “did not respond to treatment”. In data set [2], the clinical symptoms result is “clinical symptoms improved”.
